In the test the target is T1, GCase (Homo sapiens, UniProt P04062).
T1 construct: endogenous in cells; host or cells: HeLa cells
T1 sequence (P04062 40-536): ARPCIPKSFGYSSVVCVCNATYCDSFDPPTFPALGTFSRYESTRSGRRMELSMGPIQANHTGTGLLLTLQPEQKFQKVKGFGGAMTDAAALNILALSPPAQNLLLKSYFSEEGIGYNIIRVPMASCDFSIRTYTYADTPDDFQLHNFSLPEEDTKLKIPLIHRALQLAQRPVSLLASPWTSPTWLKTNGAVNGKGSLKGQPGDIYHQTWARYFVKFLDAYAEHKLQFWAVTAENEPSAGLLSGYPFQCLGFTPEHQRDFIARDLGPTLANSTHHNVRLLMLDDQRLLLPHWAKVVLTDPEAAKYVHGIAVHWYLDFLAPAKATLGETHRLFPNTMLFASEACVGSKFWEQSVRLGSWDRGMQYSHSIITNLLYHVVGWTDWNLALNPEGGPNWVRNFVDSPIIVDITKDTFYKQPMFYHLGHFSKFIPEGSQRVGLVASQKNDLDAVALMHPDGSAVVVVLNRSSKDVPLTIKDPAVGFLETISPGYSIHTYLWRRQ
Description: activation of GCase in a live cell PFB assay in HELA cells. It is filed as cell-based. As to the method:
Exemplary compounds were evaluated for activation of GCase in a live cell PFB assay in HELA cells (essentially as described in Ysselstein et al., “LRRK2 kinase activity regulates lysosomal glucocerebrosidase in neurons derived from Parkinson's disease patients” Nature Communications (2019) 10:5570). […] EC50 ranges: A: <10 μM; B: >10-50 μM; C: >50-100 μM; D: >100 μM.

The mark [1] stands for this setting: activation of GCase, EC50 ranges.

Structures are written as SMILES.

As to `O=C(c1ccc(C(F)(F)F)cn1)N1CC2(CCN(c3cnc4cnn(CC(F)F)c4n3)CC2)C1` [Cmpd 328], under setting [1], the EC50 (in general, the concentration that produces a half-maximal response) is 10 to 50 µM.

The compound `O=C1CC2(CCN(c3cnc4cnn(CC(F)F)c4n3)CC2)CN1Cc1ccc(C(F)(F)F)cc1` [Cmpd 443] had an EC50 under setting [1] below 10 µM.

With `CCOc1nn(CC(F)F)c2nc(N3CCC4(CC3)CC(=O)N(c3ccc(C(F)(F)F)nc3)C4)ncc12` [Cmpd 949], the EC50 under setting [1] is 10 to 50 µM.

Take `O=C1CC2(CCN(c3cnc4cnn(C5COC5)c4n3)CC2)CN1c1nccc(C(F)(F)F)n1` [Cmpd 279]: under setting [1], the EC50 is below 10 µM.

Under setting [1], `Cc1nc(N2CCC3(CCN(c4cnc5cnn(CC(F)F)c5n4)CC3)C2=O)cc(C(F)(F)F)n1` [Cmpd 512] displayed an EC50 below 10 µM.

`O=C1N(c2cnc3cnn(CC(F)F)c3n2)CCCC12CN(c1ccc(C(F)(F)F)cn1)C2` [Cmpd 343] yielded an EC50 under setting [1] above 100 µM.

`Cc1nn(CC(F)F)c2nc(N3CC4(CCCN(c5ccc(C(F)(F)F)nc5)C4)C3)cnc12` [Compound 137, 2-[1-(2,2-difluoroethyl)-3-methyl-1H-pyrazolo[3,4-b]pyrazin-6-yl]-6-[6-(trifluoromethyl)pyridin-3-yl]-2,6-diazaspiro[3.5]nonane] yielded an EC50 under setting [1] above 100 µM.

Consider `O=C1CC2(CCN(c3ncccc3C(F)(F)F)CC2)CN1c1cnc2cnn(CC(F)F)c2n1` [Compound 113, 2-[1-(2,2-difluoroethyl)-1H-pyrazolo[3,4-b]pyrazin-6-yl]-8-[3-(trifluoromethyl)pyridin-2-yl]-2,8-diazaspiro[4.5]decan-3-one], for which, under setting [1], the EC50 is above 100 µM.

Consider `O=C1CC2(CN1c1ccc(C(F)(F)F)nc1)C1CCC2CN(c2cnc3cnn(CC(F)F)c3n2)C1` (centres unmarked) [Cmpd 804], for which the concentration giving a half-maximal response (EC50) (EC50 given as range classes) fell in the range of 10 to 50 µM.

The compound `Cc1nc(N2CC3(CCN(c4cnc5c(n4)n(CC(F)F)c(=O)n5C)C3)C2)cc(C(F)(F)F)n1` [Cmpd 1077] showed an EC50 under setting [1] below 10 µM.

Turning to `Cc1nn(CC(F)F)c2nc(N3CCC4(CCN(c5ccnc(C(F)(F)F)c5)C4)C3)ncc12` (centres unmarked) [Cmpd 486], the EC50 under setting [1] is 50 to 100 µM.

Under setting [1], `CCc1nn(CC(F)F)c2nc(N3CCC4(CN(c5ccnc(C(F)(F)F)c5)C4)C3)ncc12` [Cmpd 1071] gave an EC50 below 10 µM.

For the compound `FC(F)Cn1ncc2ncc(N3CCC4(CCC4Oc4cccc(C(F)(F)F)n4)CC3)nc21` (centres unmarked) [Compound 83, 7-[1-(2,2-difluoroethyl)-1H-pyrazolo[3,4-b]pyrazin-6-yl]-1-{[6-(trifluoromethyl)pyridin-2-yl]oxy}-7-azaspiro[3.5]nonane], under setting [1], the EC50 is 10 to 50 µM.

In the case of `O=C1CC2(CCN(c3cnc4cnn(C5COC5)c4n3)CC2)CN1c1cc(C(F)(F)F)ccn1` [Cmpd 284], the EC50 under setting [1] was 50 to 100 µM.

Compound `FC(F)Cn1ncc2ncc(N3CCC4(CCCN(c5ccc(C(F)(F)F)cn5)C4)CC3)nc21` [Cmpd 213] returned an EC50 (EC50 given as range classes) of 10 to 50 µM.

In turn, `Cc1nc(N2CC[C@@]3(CCN(c4cnc5c(C)nn(C6COC6)c5n4)C3)C2)cc(C(F)(F)F)n1` [Cmpd 1123] showed an EC50 under setting [1] of 10 to 50 µM.

In turn, `COc1nn(CC(F)F)c2nc(N3CCC4(CC3)CCN(c3cnc(C(F)(F)F)nc3C)C4)cnc12` [Cmpd 1094] came in with an EC50 under setting [1] below 10 µM.

Turning to `CN1C(=O)N(c2ccc(C(F)(F)F)nc2)C(=O)C12CCN(c1cnc3cnn(CC(F)F)c3n1)CC2` [Cmpd 879], the EC50 under setting [1] is below 10 µM.

Under setting [1], `Cc1ccc(N2CCC3(CCN(c4cnc5cnn(CC(F)F)c5n4)CC3)C2)nn1` [Cmpd 757] displayed an EC50 below 10 µM.

For the compound `Cc1nc(N2CC3(CCN(c4ncc5c(C)nn(CC(F)(F)F)c5n4)CC3)C2)cc(C(F)(F)F)n1` [Cmpd 618], the EC50 (EC50 given as range classes) fell in the range of 10 to 50 µM.

The compound `Cc1cc(N2CC3(CCN(c4cncc(-c5nncs5)n4)C3)C2)nc(C(F)(F)F)n1` [Cmpd 465] gave an EC50 under setting [1] above 100 µM.

In turn, `O=C1CC2(CCN(c3cncc(-c4nncs4)n3)CC2)CN1c1ccc(C(F)(F)F)nc1` [Cmpd 236] displayed an EC50 under setting [1] below 10 µM.

Where the note is “EC50 given as range classes”, `FC(F)Cn1ncc2ncc(N3CCC4(CC3)CC(Nc3ccnc(C(F)(F)F)c3)C4)nc21` [Cmpd 229] displayed an EC50 of 10 to 50 µM.

`COc1nccc(CN2CC3(CCN(c4cnc5cnn(CC(F)F)c5n4)CC3)CC2=O)n1` [Cmpd 970] showed an EC50 under setting [1] of 50 to 100 µM.

Compound `Cn1c(-c2ccccc2)c(C(=O)N2CCCC3(CC(Oc4cccnc4C(F)(F)F)C3)C2)c2nccnc21` (centres unmarked) [Compound 108, 6-{5-methyl-6-phenyl-5H-pyrrolo[2,3-b]pyrazine-7-carbonyl}-2-{[2-(trifluoromethyl)pyridin-3-yl]oxy}-6-azaspiro[3.5]nonane] showed an EC50 under setting [1] of 10 to 50 µM.

Regarding `O=C1CC2(CCN(c3cnc4cnn(CC(F)F)c4n3)CC2)CN1Cc1cncc(F)c1` [Cmpd 334], the EC50 under setting [1] is 50 to 100 µM.

`O=C1N(c2cc(C(F)(F)F)ccn2)CCC12CCN(c1cnc3cnn(C4COC4)c3n1)CC2` [Cmpd 273] came in with an EC50 under setting [1] of 10 to 50 µM.

For the compound `O=C1CC2(CCN(c3cnc4cnn(CC(F)F)c4n3)C2)CCN1c1ccc(C(F)(F)F)cn1` (centres unmarked) [Cmpd 791], the EC50 (EC50 given as range classes) fell in the range of 50 to 100 µM.

Consider `FC(F)Cn1ncc2ncc(N3CCC4(CCC(Oc5ccc(C(F)(F)F)nc5)C4)CC3)nc21` (centres unmarked) [Cmpd 693], for which the concentration for a half-maximal effect (EC50) under setting [1] was below 10 µM.

For the compound `O=C1CC2(CCN(c3cnc4cnn(CC(F)F)c4n3)CC2)CN1c1ccc(C(F)(F)F)cc1F` [Cmpd 729], under setting [1], the EC50 was below 10 µM.

The compound `CC[C@H]1N(c2cnc(C(F)(F)F)nc2)C[C@]12CCN(c1cnc3cnn(CC(F)F)c3n1)C2` [Cmpd 1048] displayed an EC50 under setting [1] of 10 to 50 µM.

`Cc1nn(CC(F)F)c2nc(N3CCC4(CC3)CN(c3cc(C(F)(F)F)ccn3)C4)ncc12` [Cmpd 491]: the EC50 under setting [1] fell in the range of 10 to 50 µM.

As to `Cc1ncc(N2CC3(CCN(c4cnc5cnn(CC(F)F)c5n4)C3)C2)cn1` [Cmpd 461], the EC50 under setting [1] is above 100 µM.

`O=C1C[C@]2(CC3CCC2CN3c2cnc3cnn(CC(F)F)c3n2)CN1c1ccc(C(F)(F)F)cn1` (some centres unmarked) [Cmpd 864] registered an EC50 under setting [1] of 10 to 50 µM.

`FC(F)Cn1ncc2ncc(N3CCC4(CC3)CCN(c3nccnc3C(F)(F)F)C4)nc21` [Cmpd 735] came in with an EC50 under setting [1] of 10 to 50 µM.

For `FC(F)Cn1ncc2ncc(N3CCC4(CC3)CC(Oc3ccc(C(F)(F)F)cn3)C4)nc21` [Cmpd 710], the EC50 under setting [1] was 10 to 50 µM.

Under setting [1], `O=C1N(c2cncc(C(F)(F)F)n2)CCC12CCN(c1cnc3cnn(CC(F)(F)F)c3n1)CC2` [Cmpd 272] returned an EC50 of 10 to 50 µM.

Under setting [1], `O=C1CC2(CC3CCC2CN3c2cnc3cnn(CC(F)F)c3n2)CN1c1ccc(C(F)(F)F)nc1` (centres unmarked) [Cmpd 865] registered an EC50 of 10 to 50 µM.

The compound `Cc1ncc(N2CC3(CCN(c4cnc5cnn([C@@H]6CCOC6)c5n4)C3)C2)c(C(F)(F)F)n1` [Cmpd 653] gave an EC50 under setting [1] above 100 µM.

On to `O=C1CCC2(CCN(c3cnc4cnn(CC(F)F)c4n3)CC2)CN1c1ccc(C(F)(F)F)cn1` [Cmpd 294], for which the EC50 under setting [1] fell in the range of 10 to 50 µM.

For `Cc1cc(C(F)(F)F)cnc1N1CC2(CCN(c3cnc4cnn(CC(F)F)c4n3)C2)C1` [Cmpd 437], the EC50 under setting [1] was in the range of 50 to 100 µM.

The compound `CCN1C(=O)N(c2ccnc(C(F)(F)F)n2)C(=O)C12CCN(c1cnc3cnn(C4COC4)c3n1)CC2` [Cmpd 909] registered an EC50 under setting [1] of 10 to 50 µM.

Under setting [1], `CCOc1nn(C2COC2)c2nc(N3CCC4(CN(c5ccnc(C(F)(F)F)c5)C4)C3)ncc12` [Cmpd 946] came in with an EC50 of 10 to 50 µM.

Under setting [1], `FC(F)Cn1ncc2ncc(N3CC4(CCN(c5cnc(C(F)(F)F)cn5)CC4)C3)nc21` [Cmpd 770] displayed an EC50 below 10 µM.

In turn, `COc1nn(CC(F)F)c2nc(N3CCC4(CN(c5cc(C)nc(C(F)(F)F)n5)C4)C3)cnc12` [Cmpd 1097] yielded an EC50 under setting [1] of 10 to 50 µM.

For the setting “EC50 given as range classes”, `Cc1nc(N2CC3(CCN(c4cc5c(cn4)cnn5CC(F)F)CC3)C2)cc(C(F)(F)F)n1` [Cmpd 632] gave an EC50 below 10 µM.

`Cc1nc(N2CCC3(CCN(c4ncc5cnn(C6COC6)c5n4)CC3)C2)cc(C(F)(F)F)n1` [Cmpd 573] had an EC50 under setting [1] above 100 µM.

With `Cc1nc(N2CCC3(CCN(c4cncc(-c5nncs5)n4)C3)C2)cc(C(F)(F)F)n1` (centres unmarked) [Cmpd 539], under setting [1], the EC50 lay in the range of 10 to 50 µM.

As for `FC(F)Cn1ncc2ncc(N3CCC4(CCN(c5ccc(C(F)(F)F)cn5)CC4)CC3)nc21` [Cmpd 810], the EC50 (EC50 given as range classes) lay in the range of 10 to 50 µM.

The compound `Cc1nc(N2CC3(CCN(c4ccc5cnn(CC(F)F)c5n4)C3)C2)cc(C(F)(F)F)n1` [Cmpd 621] displayed an EC50 (EC50 given as range classes) of 10 to 50 µM.

On to `Fc1ncc(N2CCC3(CCN(c4cnc5cnn(CC(F)F)c5n4)CC3)C2)nc1C(F)(F)F` [Cmpd 767], for which the EC50 under setting [1] was below 10 µM.

On to `COc1nc(C(F)(F)F)ccc1N1CC2(CCN(c3cnc4cnn(CC(F)F)c4n3)CC2)CC1=O` [Cmpd 779], for which the EC50 (EC50 given as range classes) was below 10 µM.

For the compound `FC(F)Cn1ncc2ncc(N3CCC4(CCN(c5ccnc(C(F)(F)F)c5)CC4)C3)nc21` [Compound 155, 2-[1-(2,2-difluoroethyl)-1H-pyrazolo[3,4-b]pyrazin-6-yl]-8-[2-(trifluoromethyl)pyridin-4-yl]-2,8-diazaspiro[4.5]decane], under setting [1], the EC50 was below 10 µM.

For `Cc1nn(C2COC2)c2nc(N3CCC4(CC3)CN(c3cc(C(F)(F)F)ccn3)C4)cnc12` [Cmpd 480], the EC50 under setting [1] fell in the range of 10 to 50 µM.

The compound `Cc1ccc(S(=O)(=O)N2CC3(CCN(c4cnc5cnn(CC(F)F)c5n4)C3)C2)cc1` [Cmpd 385] had an EC50 (EC50 given as range classes) of 10 to 50 µM.

The compound `O=C1CC2(CCN(c3cnc4cnn(CC(F)F)c4n3)CC2)CN1c1cccc(C(F)(F)F)n1` [Compound 101, 8-[1-(2,2-difluoroethyl)-1H-pyrazolo[3,4-b]pyrazin-6-yl]-2-[6-(trifluoromethyl)pyridin-2-yl]-2,8-diazaspiro[4.5]decan-3-one] returned an EC50 under setting [1] of 10 to 50 µM.

(Values after patent US20250034170A1, “SMALL MOLECULE MODULATORS OF GLUCOCEREBROSIDASE ACTIVITY AND USES THEREOF” (Vanqua Bio, Inc., priority 2021, published 2025).)
